Calls of active or inactive are those of the source. The rule behind the calls is not given here.
Legend:
Mus musculus [1] = assay: Cardioprotective activity against myocardial ischemia/reperfusion induced C57BL/6J mouse model assessed as reduction in ST-segment elevation at 10 mg/kg; assay type: functional, organism-based
H9c2 [2] = assay: Protection against H2O2 induced myocardial cell injury in rat H9c2 cells at 10 uM pretreated for 24 hrs followed by H2O2 exposure and measured after 1.5 hrs (reference value: 17.91 to 57.32%); assay type: functional; settings: time 25.5 hrs
TE-1 = assay: Antiproliferative activity against human TE-1 cells assessed as inhibition of cell growth by MTT assay
Mus musculus [3] = assay: Cardioprotective activity against myocardial ischemia/reperfusion induced C57BL/6J mouse model assessed as effect on infarct size of mouse heart at 10 mg/kg by TTC staining based analysis; assay type: functional, organism-based
H9c2 [4] = assay: Protection against H2O2 induced myocardial cell injury in rat H9c2 cells at 5 uM pretreated for 24 hrs followed by H2O2 exposure and measured after 1.5 hrs (reference value: 41.79+/-1.59%); assay type: functional; settings: time 25.5 hrs
[5] = target: T1, Protein deacetylase HDAC6 (Homo sapiens) (UniProt Q9UBN7); settings: dose 100.0 nM
T1 sequence (whole entry): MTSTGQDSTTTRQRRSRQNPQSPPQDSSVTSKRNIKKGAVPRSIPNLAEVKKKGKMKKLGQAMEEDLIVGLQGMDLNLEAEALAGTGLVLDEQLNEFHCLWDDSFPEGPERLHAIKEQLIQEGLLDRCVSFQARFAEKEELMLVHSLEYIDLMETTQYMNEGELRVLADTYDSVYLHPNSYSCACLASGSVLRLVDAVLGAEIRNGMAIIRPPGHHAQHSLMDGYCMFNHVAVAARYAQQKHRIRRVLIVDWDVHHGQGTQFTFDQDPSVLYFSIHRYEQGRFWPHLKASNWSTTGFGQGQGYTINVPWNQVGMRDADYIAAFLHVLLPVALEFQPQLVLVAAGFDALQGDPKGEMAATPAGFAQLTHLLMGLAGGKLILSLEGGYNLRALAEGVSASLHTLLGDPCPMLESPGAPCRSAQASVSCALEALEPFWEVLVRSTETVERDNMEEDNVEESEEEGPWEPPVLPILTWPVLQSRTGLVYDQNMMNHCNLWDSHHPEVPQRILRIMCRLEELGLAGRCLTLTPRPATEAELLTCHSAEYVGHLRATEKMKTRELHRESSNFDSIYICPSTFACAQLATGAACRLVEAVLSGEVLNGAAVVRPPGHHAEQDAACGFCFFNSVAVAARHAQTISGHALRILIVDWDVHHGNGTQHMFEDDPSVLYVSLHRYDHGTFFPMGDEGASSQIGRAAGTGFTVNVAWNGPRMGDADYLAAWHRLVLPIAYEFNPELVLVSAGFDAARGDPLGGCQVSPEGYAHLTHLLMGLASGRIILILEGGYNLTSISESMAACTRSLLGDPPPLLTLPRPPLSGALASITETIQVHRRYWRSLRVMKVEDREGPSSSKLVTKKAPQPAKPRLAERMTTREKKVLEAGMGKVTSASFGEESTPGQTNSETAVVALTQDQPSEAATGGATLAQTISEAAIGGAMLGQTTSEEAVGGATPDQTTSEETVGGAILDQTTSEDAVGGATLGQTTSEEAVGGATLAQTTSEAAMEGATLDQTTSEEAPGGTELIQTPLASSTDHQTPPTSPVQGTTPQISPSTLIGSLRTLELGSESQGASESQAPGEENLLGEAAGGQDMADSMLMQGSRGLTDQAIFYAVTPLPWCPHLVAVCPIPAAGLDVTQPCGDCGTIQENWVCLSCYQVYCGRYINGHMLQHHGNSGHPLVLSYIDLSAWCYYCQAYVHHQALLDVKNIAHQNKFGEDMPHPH
Description: Inhibition of HDAC6 (unknown origin) at 100 nM relative to control

H9c2 [6] = assay: Protection against H2O2 induced myocardial cell injury in rat H9c2 cells assessed as fold change at 5 uM pretreated for 24 hrs followed by H2O2 exposure and measured after 1.5 hrs relative to H2O2 alone; assay type: functional; settings: time 25.5 hrs
H9c2 [7] = assay: Protection against H2O2 induced myocardial cell injury in rat H9c2 cells assessed as fold change at 10 uM pretreated for 24 hrs followed by H2O2 exposure and measured after 1.5 hrs relative to H2O2 alone; assay type: functional; settings: time 25.5 hrs
PANC-1 = assay: Antiproliferative activity against human PANC-1 cells assessed as inhibition of cell growth by MTT assay
PC-3 = assay: Antiproliferative activity against human PC-3 cells assessed as inhibition of cell growth by MTT assay
MGC-803 = assay: Antiproliferative activity against human MGC-803 cells assessed as inhibition of cell growth by MTT assay
HCT-116 = assay: Antiproliferative activity against human HCT-116 cells assessed as inhibition of cell growth by MTT assay
SMMC-7721 = assay: Antiproliferative activity against human SMMC-7721 cells assessed as inhibition of cell growth by MTT assay
NCI-H460 = assay: Antiproliferative activity against human NCI-H460 cells assessed as inhibition of cell growth by MTT assay

Row | SMILES | Activity (Mus musculus [1]) | Activity (H9c2 [2]) [%] | IC50 (TE-1) [µM] | Activity (Mus musculus [3]) | Activity (H9c2 [4]) [%] | inhibition [5] [%] | fold change (FC) (H9c2 [6]) | fold change (FC) (H9c2 [7]) | IC50 (PANC-1) [µM] | IC50 (PC-3) [µM] | IC50 (MGC-803) [µM] | IC50 (HCT-116) [µM] | IC50 (SMMC-7721) [µM] | IC50 (NCI-H460) [µM]
1 | O=C(CCCCCCC(=O)Nc1ccccc1)NO [VORINOSTAT] | Active | 71.54 | 2.25 | inactive |  |  |  |  |  |  |  |  |  | 
2 | O=c1cc(-c2ccc(O)c(O)c2)oc2cc(O)cc(O)c12 [LUTEOLIN] |  | 91.43 |  |  | 86.37 | 1 | 2.07 | 2.53 |  |  |  |  |  | 
3 | Cc1ccc(-c2cc(C(=O)NCc3ccc(C(=O)NO)cc3)c3nccn3c2)cc1 |  | 84.83 | 5.54 |  | 83.58 |  |  |  | 6.15 | > 10 | 1.17 | > 10 | 1.85 | > 10
4 | Cc1cccc(-c2cc(C(=O)NCc3ccc(C(=O)NO)cc3)c3nccn3c2)c1 |  | 74.81 | 2.77 |  |  |  |  |  | > 10 | > 10 | 3.47 | 5.7 | 1.98 | > 10

Source: ChEMBL document CHEMBL5550215, “Discovery of Novel Imidazo[1,2-a]pyridine-Based HDAC6 Inhibitors as an Anticarcinogen with a Cardioprotective Effect” (J Med Chem, 2024)
